Reference: patent US20190152992A1, “BENZODIOXANE DERIVATIVES AND THEIR PHARMACEUTICAL USE” (Orion Corporation, priority 2016, published 2019)

Tests used:
human alpha2A receptors = molecular target: T1, human alpha2A receptors (Homo sapiens, UniProt P08913); assay: cell-based
T1 sequence (P08913 1-465): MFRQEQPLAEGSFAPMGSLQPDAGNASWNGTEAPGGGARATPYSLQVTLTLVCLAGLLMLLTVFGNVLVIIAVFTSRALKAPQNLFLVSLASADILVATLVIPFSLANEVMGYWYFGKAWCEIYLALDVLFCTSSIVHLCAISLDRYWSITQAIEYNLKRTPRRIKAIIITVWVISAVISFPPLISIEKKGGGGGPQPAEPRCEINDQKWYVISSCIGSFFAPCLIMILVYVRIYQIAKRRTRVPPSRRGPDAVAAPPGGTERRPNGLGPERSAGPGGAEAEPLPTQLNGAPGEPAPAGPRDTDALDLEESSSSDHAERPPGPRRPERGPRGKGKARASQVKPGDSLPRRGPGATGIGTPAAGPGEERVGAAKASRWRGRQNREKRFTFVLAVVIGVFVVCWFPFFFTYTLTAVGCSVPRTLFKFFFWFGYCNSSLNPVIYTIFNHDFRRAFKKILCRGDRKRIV
Description: Experiment 1: Determination of alpha2A and alpha2C Antagonistic Activity In Vitro
The growth medium was removed and the cells were incubated with the test compounds and the FLIPR Calcium 6 Assay reagent (Molecular Devices, CA, USA) for 2 h at 37° C. in dark. The test compounds (concentrations in cells 100 pM-10 μM) were dissolved in Probenecid-Ringer consisting of 150 mM NaCl, 3 mM KCl, 1.2 mM MgCl2, 1 mM CaCl2, 5 mM glucose, 20 mM HEPES and 2.5 mM probenecid (pH 7.4 adjusted with 1.0 M NaOH). […] All experiments were performed at 37° C. For agonism measurements the test compounds dissolved in Probenecid-Ringer were applied by FLIPR Tetra at 15 s time point. In order to determine antagonism, the cells were stimulated either with 100 nM adrenaline or noradrenaline and the test compounds were added to the cells 2 h before the experiment with the FLIPR Calcium 6 Assay reagent. […] Typically, there were four replicates at each concentration and six different dose levels. […] The minimum fluorescence value subtracted from the maximum value for each well was used in the calculations. ScreenWorks version 4.0 software was used for analyzing the results. Fitting of the antagonist dose-response results was performed with the free Hill equation and the IC50 values were fitted with IDBS XE software using model 200: y=(A+(B/(1+((x/C)̂D)))), where A is the curve maximum, B the curve minimum and C equals the EC50 value. D is slope factor (Hill). Kb was calculated with the Cheng-Prusoff equation Kb=A/((B/C)+1), where A is the IC50 of antagonist, B the concentration of agonist and C the EC50 of the agonist.

human alpha2C receptors = molecular target: T2, human alpha2C receptors (Homo sapiens, UniProt P18825); assay: Determination of alpha2C antagonistic activity in vitro (FLIPR calcium assay); details: for Kb: Alpha 2C Adrenaline Kb, Kb calculated from IC50 with the Cheng-Prusoff equation, adrenaline as agonist, CHO cells, human alpha2C
T2 sequence (P18825 1-462): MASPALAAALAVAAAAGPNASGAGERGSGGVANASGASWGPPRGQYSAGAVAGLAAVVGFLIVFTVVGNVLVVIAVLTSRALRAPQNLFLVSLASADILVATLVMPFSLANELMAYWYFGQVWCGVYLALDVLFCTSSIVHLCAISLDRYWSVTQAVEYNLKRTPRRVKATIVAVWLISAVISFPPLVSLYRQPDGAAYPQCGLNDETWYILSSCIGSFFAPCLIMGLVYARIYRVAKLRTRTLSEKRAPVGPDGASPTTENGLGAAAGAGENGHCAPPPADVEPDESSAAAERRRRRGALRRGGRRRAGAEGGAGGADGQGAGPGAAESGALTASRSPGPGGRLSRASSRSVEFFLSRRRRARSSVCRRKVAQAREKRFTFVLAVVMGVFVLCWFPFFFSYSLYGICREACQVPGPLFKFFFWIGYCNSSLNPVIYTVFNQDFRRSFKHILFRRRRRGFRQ

| Compound | IC50 (human alpha2A receptors) [µM] | Kb (human alpha2A receptors) [nM] | IC50 (human alpha2C receptors) [nM] | Kb (human alpha2C receptors) [nM] |
| --- | --- | --- | --- | --- |
| CC1CCN([C@H]2CCCN(C[C@H]3COc4ccccc4O3)C2)C1=O (single isomer, unassigned; diastereomer 1) [example 98] | > 10 | > 449 | 9.26 | 0.93 |
| C[C@@H](c1ccccc1)N1C(=O)C(=O)N([C@H]2CCCN(C[C@H]3COc4ccccc4O3)C2)C1=O [compound 133, 1-((S)-1-(((S)-2,3-Dihydrobenzo[b][1,4]dioxin-2-yl)methyl)-piperidin-3-yl)-3-((S)-1-phenylethyl)imidazolidine-2,4,5-trione] | 0.807 | 36 | < 0.01 | < 0.001 |
| CC1(C)CC(=O)N([C@H]2CCCN(C[C@H]3COc4ccccc4O3)C2)C1 [example 1, 1-((S)-1-(((S)-2,3-Dihydrobenzo[b][1,4]dioxin-2-yl)methyl)piperidin-3-yl)-4,4-dimethylpyrrolidin-2-one] | > 10 | > 449 | 0.32 | 0.03 |
| O=C1NC(c2ccccc2)(c2ccccc2)CN1[C@H]1CCCN(C[C@H]2COc3ccccc3O2)C1 [example 2, 1-((S)-1-(((S)-2,3-Dihydrobenzo[b][1,4]dioxin-2-yl)methyl)piperidin-3-yl)-4,4-diphenylimidazolidin-2-one] | 1.33 | 60 | < 0.1 | < 0.01 |
| C[C@H]1C(=O)N([C@H]2CCCN(C[C@H]3COc4ccccc4O3)C2)C(=O)[C@@H]1C [example 4, (3R,4R)-1-((S)-1-(((S)-2,3-Dihydrobenzo[b][1,4]dioxin-2-yl)methyl)piperidin-3-yl)-3,4-dimethylpyrrolidine-2,5-dione] | > 10 | > 449 | 1.77 | 0.18 |
| CCC1(CC)OC(=O)N([C@H]2CCCN(C[C@H]3COc4ccccc4O3)C2)C1=O [example 5, 3-((S)-1-(((S)-2,3-Dihydrobenzo[b][1,4]dioxin-2-yl)methyl)piperidin-3-yl)-5,5-diethyloxazolidine-2,4-dione] | 1.3 | 58 | 0.13 | 0.01 |
| CC(C)N1C(=O)N([C@H]2CCCN(C[C@H]3COc4ccccc4O3)C2)C[C@H]1c1ccccc1 [example 6, (R)-1-((S)-1-(((S)-2,3-Dihydrobenzo[b][1,4]dioxin-2-yl)methyl)-piperidin-3-yl)-3-isopropyl-4-phenylimidazolidin-2-one] | 9.87 | 443 | 672 | 67.7 |
| CC(C)N1C(=O)N([C@H]2CCCN(C[C@H]3COc4ccccc4O3)C2)C[C@@H]1c1ccccc1 [example 7, (S)-1-((S)-1-(((S)-2,3-Dihydrobenzo[b][1,4]dioxin-2-yl)methyl)piperidin-3-yl)-3-isopropyl-4-phenylimidazolidin-2-one] | 1.73 | 78 | < 0.1 | < 0.01 |
| O=C1c2cccnc2CN1[C@H]1CCCN(C[C@H]2COc3ccccc3O2)C1 [example 10, 6-((S)-1-(((S)-2,3-Dihydrobenzo[b][1,4]dioxin-2-yl)methyl)piperidin-3-yl)-6,7-dihydro-5H-pyrrolo[3,4-b]pyridin-5-one] | > 10 | > 449 | 3.78 | 0.379 |
| O=C1c2cnccc2CN1[C@H]1CCCN(C[C@H]2COc3ccccc3O2)C1 [example 11, 2-((S)-1-(((S)-2,3-Dihydrobenzo[b][1,4]dioxin-2-yl)methyl)piperidin-3-yl)-1H-pyrrolo[3,4-c]pyridin-3(2H)-one] | > 10 | > 449 | 127 | 12.8 |
| CSc1ncc2c(n1)C(=O)N([C@H]1CCCN(C[C@H]3COc4ccccc4O3)C1)C2 [example 12, 6-((S)-1-(((S)-2,3-Dihydrobenzo[b][1,4]dioxin-2-yl)methyl)piperidin-3-yl)-2-(methylthio)-5H-pyrrolo[3,4-d]pyrimidin-7(6H)-one] | > 10 | > 449 | 509 | 51.2 |
| O=C1c2ncsc2CN1[C@H]1CCCN(C[C@H]2COc3ccccc3O2)C1 [example 13, 5-((S)-1-(((S)-2,3-Dihydrobenzo[b][1,4]dioxin-2-yl)methyl)piperidin-3-yl)-5,6-dihydro-4H-pyrrolo[3,4-d]thiazol-4-one] | > 10 | > 449 | 22.4 | 2.26 |
| C[C@]1(c2ccccc2)CCN([C@H]2CCCN(C[C@H]3COc4ccccc4O3)C2)C1=O [example 14, (R)-1-((S)-1-(((S)-2,3-Dihydrobenzo[b][1,4]dioxin-2-yl)methyl)piperidin-3-yl)-3-methyl-3-phenylpyrrolidin-2-one] | 5.84 | 262 | 0.048 | 0.005 |
| C[C@@]1(c2ccccc2)CCN([C@H]2CCCN(C[C@H]3COc4ccccc4O3)C2)C1=O [example 15, (S)-1-((S)-1-(((S)-2,3-Dihydrobenzo[b][1,4]dioxin-2-yl)methyl)-piperidin-3-yl)-3-methyl-3-phenylpyrrolidin-2-one] | > 10 | > 449 | 363 | 36.6 |
| CCN1CCN([C@H]2CCCN(C[C@H]3COc4ccccc4O3)C2)C1=O [example 16, 1-((S)-1-(((S)-2,3-Dihydrobenzo[b][1,4]dioxin-2-yl)methyl)piperidin-3-yl)-3-ethylimidazolidin-2-one] | > 10 | > 449 | 0.57 | 0.06 |
| CC(C)(C)C1CN([C@H]2CCCN(C[C@H]3COc4ccccc4O3)C2)C(=O)O1 (stereo partly drawn) [example 18, 5-tert-Butyl-3-((S)-1-(((S)-2,3-dihydrobenzo[b][1,4]dioxin-2-yl)methyl)piperidin-3-yl)oxazolidin-2-one] | 8.51 | 382 | 0.235 | 0.024 |
| CC(C)C1CN([C@H]2CCCN(C[C@H]3COc4ccccc4O3)C2)C(=O)O1 (stereo partly drawn) [example 19, 3-((S)-1-(((S)-2,3-Dihydrobenzo[b][1,4]dioxin-2-yl)methyl)piperidin-3-yl)-5-isopropyloxazolidin-2-one] | > 10 | > 449 | 7.65 | 0.771 |
| CC(=O)NCC1CN([C@H]2CCCN(C[C@H]3COc4ccccc4O3)C2)C(=O)O1 (stereo partly drawn) [example 20, N-((3-((S)-1-(((S)-2,3-Dihydrobenzo[b][1,4]dioxin-2-yl)methyl)piperidin-3-yl)-2-oxooxazolidin-5-yl)methyl)acetamide] | > 10 | > 449 | 6.91 | 0.696 |
| O=C1OC(c2ccc(F)cc2)CN1[C@H]1CCCN(C[C@H]2COc3ccccc3O2)C1 (stereo partly drawn) [example 21, 3-((S)-1-(((S)-2,3-Dihydrobenzo[b][1,4]dioxin-2-yl)methyl)piperidin-3-yl)-5-(4-fluorophenyl)oxazolidin-2-one] | 1.4 | 63 | 1.9 | 0.191 |
| CSc1ncc2c(n1)CN([C@H]1CCCN(C[C@H]3COc4ccccc4O3)C1)C2=O [example 22, 6-((S)-1-(((S)-2,3-Dihydrobenzo[b][1,4]dioxin-2-yl)methyl)piperidin-3-yl)-2-(methylthio)-6,7-dihydro-5H-pyrrolo[3,4-d]pyrimidin-5-one] | > 10 | > 449 | < 0.01 | < 0.001 |
| O=C1c2cncnc2CN1[C@H]1CCCN(C[C@H]2COc3ccccc3O2)C1 [example 23, 6-((S)-1-(((S)-2,3-Dihydrobenzo[b][1,4]dioxin-2-yl)methyl)piperidin-3-yl)-6,7-dihydro-5H-pyrrolo[3,4-d]pyrimidin-5-one] | > 10 | > 449 | 18 | 1.81 |
| Cn1ncc2c1C(=O)N([C@H]1CCCN(C[C@H]3COc4ccccc4O3)C1)C2 [example 24, 5-((S)-1-(((S)-2,3-Dihydrobenzo[b][1,4]dioxin-2-yl)methyl)piperidin-3-yl)-1-methyl-4,5-dihydropyrrolo[3,4-c]pyrazol-6(1H)-one] | > 10 | > 449 | 89.7 | 9.03 |
| O=S1(=O)Cc2ccccc2N1[C@H]1CCCN(C[C@H]2COc3ccccc3O2)C1 [example 25, 1-((S)-1-(((S)-2,3-Dihydrobenzo[b][1,4]dioxin-2-yl)methyl)piperidin-3-yl)-1,3-dihydrobenzo[c]isothiazole 2,2-dioxide] | 0.535 | 24 | 19.4 | 1.95 |
